Patent publication US11167006B2 (Shanghai Tianci Life Science Development Co., Ltd., priority 2016, dated 2021)
Square brackets hold non-standard residues; d marks the D form. Peptide text beside a SMILES is read from it. NMeF = CN[C@@H](Cc1ccccc1)C(=O)O

Columns and labels:
[1] = tested on: gastrointestinal movement of male mice of Kunming strain; test: Gastrointestinal movement in vivo (activated carbon suspension); parameters: species or system mouse
Method: Male mice of Kunming strain, weighing 26±2 g. The commonly used toner detection method was used in the detection of astrointestinal movement in vivo. The specific experimental procedure was: before the gastrointestinal movement experiment, the mice were fasted for 16 hours (free drinking during fasting), then the drug was injected through spinal cord or subcutaneously, and after 15 minutes, the activated carbon suspension prepared in advance (a physiological saline suspension containing 5% of activated carbon and 10% gum arabic) was orally perfused into the stomach in a volume of 0.1 ml per 10 g of body weight. After 30 minutes from the perfusion of activated carbon suspension, the animals were sacrificed by cervical dislocation, and then the small intestine of the animal from the pylorus to the cecum was carefully taken out. The total lengths of the small intestine from the pylorus to the cecum and the furthest distance from which the activated carbon suspension moves were measured.
Gastrointestinal movement test results were evaluated by a percentage of gastrointestinal movement, and the percentage of gastrointestinal movement per mouse was calculated by dividing the moving distance of the activated carbon suspension by the total length of the small intestine. The relevant data were expressed as mean of the percentage of gastrointestinal movement±standard error (Means±S.E.M.), the data for differences between groups treated with different drug concentrations were analyzed by one-way ANOVA (Dunnett test in one-way ANOVA) for statistics and analysis, ***P<0.001 represented that there was a significant difference between the percentage of gastrointestinal movement of the drug-treated group and that of the saline group.

[2] = tested on: neuralgia induced by chronic compression of the sciatic nerve in mice; test: CCI neuralgia model (thermal and mechanical pain); assay type: in vivo, mouse
Method: The chronic compression model of the sciatic nerve (CCI) was mainly used for the mouse neuralgia. The detection method uses thermal tingling instrument and electronic Von Frey tenderness instrument to simultaneously detect thermal pain and mechanical pain. Firstly, the basic pain threshold of thermal pain and mechanical pain in normal mice were determined respectively. The mice were then anesthetized with sodium pentobarbital (i.p., 80 mg/kg mouse body weight) and the mice were fixed in the prone position. The right sciatic nerve was exposed and 3 mild ligation rings were made around the sciatic nerve using a 4-0 chromic catgut, 1 mm intervals. The ligation intensity is preferably a slight tremor in the right hind leg. On the 10th day after surgery, the thermal pain sensitivity value of the right hind paw of the mouse was measured, and then compound 9 was intrathecally or subcutaneously administered, and the thermal pain threshold at different time points after administration were recorded. On the 11th day after surgery, the mechanical pain sensitivity value of the right hind paw of the mouse was measured, and then Compound 9 was intrathecally or subcutaneously administered, and the mechanical pain threshold at different time points after administration were recorded.
The experimental data were expressed as mean±standard error (Means±S.E.M.), and the data for differences between groups treated with different drug concentrations were analyzed by one-way ANOVA (Bonferroni test in one-way ANOVA) for statistics and analysis, **P<0.01, ***P<0.001 represents that there was a significant difference between the pain threshold value of the drug-treated group and that of the saline group.
First, the maximum analgesic effect (MPE) was calculated, MPE (%)=100×[(pain threshold after administration−pain sensitivity value of the hind paw in surgical side)/(basic pain threshold−pain sensitivity value of the hind paw in surgical side)].

[3] = tested on: formalin-induced pain mice; test: Formalin pain test; assay type: in vivo, mouse
Method: The mice were placed in a transparent organic glass box (20×20×30 cm) to accommodate the environment for 10-15 min; a mirror tilted at 30 degrees was placed underneath to facilitate observation of the mouse's foot reaction. After adaptation, the mice were administered in lateral ventricle, intrathecally or intraperitoneally. 5 minutes after administration, 20 μL of a 5% formalin solution was subcutaneously injected into the toes of the right hind paw of the mice, and quickly placed back in the observation box. Timing was started, and the time when the mouse was licking, biting and shaking the injected paw during 0-5 minutes and 15-30 minutes after the injection of the formalin solution were recorded respectively.
The experimental data was expressed by MPE (maximum possible effect), MPE (%)=100×[(licking paw time in saline group−licking paw time in drug group)/licking paw time in saline group]. The relevant MPE data were expressed as mean±standard error Means±S.E.M.), the data for differences between groups treated with different drug concentrations were analyzed by one-way ANOVA (Bonferroni test in one-way ANOVA) for statistics and analysis, ***P<0.001 represents that there was a significant difference between the MPE value of the drug-treated group and that of the saline group.

[4] = lateral ventricle (i.c.v.), listed as compound 9
[5] = lateral ventricle, from ED50 values

## C[C@@H](NC(=O)[C@@H](N)Cc1ccc(O)cc1)C(=O)NCC(=O)N(C)[C@@H](Cc1ccccc1)C(=O)NCC(=O)N1CCC[C@H]1C(=O)N[C@@H](CCC(N)=O)C(=O)N[C@@H](CCCNC(=N)N)C(=O)N[C@@H](Cc1ccccc1)C(N)=O [Compound 9, Tyr-D-Ala-Gly-NMe-Phe-Gly-Pro-Gln-Arg-Phe-NH2] (H-Y[dA]G[NMeF]GPQRF-NH2)
[1]; 10 mg/kg (compound 9 subcutaneous; morphine positive control)
  percentage of gastrointestinal movement: 37.10%
[1]; intrathecal injection
  dose with significant inhibitory effect on gastrointestinal movement: ≥ 300 pmol
[1]; intrathecal injection, 100 pmol
  percentage of gastrointestinal movement: 45.71%
[1]; intrathecal injection, 300 pmol
  percentage of gastrointestinal movement: 31.40%
[1]; intrathecal injection, 500 pmol
  percentage of gastrointestinal movement: 21.67%
[1]; subcutaneous, 1 mg/kg
  percentage of gastrointestinal movement: 47.28%
[1]; subcutaneous, 30 mg/kg
  percentage of gastrointestinal movement: 33.12%
[1]; subcutaneous, 100 mg/kg
  percentage of gastrointestinal movement: 24.14%
[2]; intrathecal
  analgesic ED50 value, thermal hyperalgesia: 1.74 (1.38-2.20) pmol
[2]; subcutaneous
  analgesic ED50 value, mechanical hyperalgesia: 3.51 (3.28-3.74) mg/kg
  analgesic ED50 value, thermal hyperalgesia: 3.12 (2.77-3.51) mg/kg
[3]; intraperitoneal (i.p.)
  ED50 value (95% confidence interval) first phase pain: 8.855 (7.573 to 10.35) mg/kg
  ED50 value (95% confidence interval) second phase pain: 10.92 (9.632 to 12.39) mg/kg
[3]; intrathecal (i.t.)
  ED50 value (95% confidence interval) first phase pain: 37.69 (35.53 to 39.99) pmol
  ED50 value (95% confidence interval) second phase pain: 55.04 (51.26 to 59.10) pmol
[3]; lateral ventricle (i.c.v.)
  ED50 value (95% confidence interval) first phase pain: 18.8 pmol
  ED50 value (95% confidence interval) second phase pain: 103.4 pmol
[3]; [4]
  ED50 value (95% confidence interval) first phase pain: 18.80 (15.97 to 22.12) pmol
  ED50 value (95% confidence interval) second phase pain: 103.4 (96.02 to 111.3) pmol
[3]; [5]
  analgesic effect relative to BN-9, first phase pain: 6.3 times
  analgesic effect relative to BN-9, second phase pain: 11.0 times
